{
  "source": "patent US20250288577A1",
  "about": "“METHODS OF TREATING A VIRUS INFECTION AND METHODS OF INHIBITING VIRAL REPLICATION” (CORNELL UNIVERSITY, priority 2022, published 2025)",
  "origin": "cited, not measured here",
  "key": {"[1]": {"system": "influenza A", "settings": "reported in literature"}, "[2]": {"system": "Adenovirus", "settings": "reported in literature"}},
  "data": [
    {"smiles": "O=C(Cc1cccc(OC(F)(F)F)c1)Nc1ccc(CCCCc2nnc(NC(=O)Cc3ccccn3)s2)nn1", "note": "[CB839, Telaglenastat]", "values": [
      {"measurement": "block of influenza A", "setting": "[1]", "value": "block"},
      {"measurement": "block of Adenovirus", "setting": "[2]", "value": "block"}
    ]}
  ]
}
